According to publication PMC6874179, “Development of Macrocycle Kinase Inhibitors for ALK2 Using Fibrodysplasia Ossificans Progressiva‐Derived Endothelial Cells” (JBMR Plus, 2019):

Columns and labels:
[1] = biological target: T1, ACVR2A (Homo sapiens, UniProt P27037); experiment: DiscoverX Kd determination; format: binding
T1 construct: T7 phage fusion (or DNA tag for qPCR if made in HEK-293); purchased DiscoverX; host or cells: E. coli (T7 phage) or HEK-293
Procedure: (§1) DiscoverX Kd determination: For most assays, kinase-tagged T7 phage strains were prepared in an E. coli host derived from the BL21 strain. E. coli were grown to log-phase and infected with T7 phage and incubated with shaking at 32°C until lysis. The lysates were centrifuged and filtered to remove cell debris. The remaining kinases were produced in HEK-293 cells and subsequently tagged with DNA for qPCR detection. Streptavidin-coated magnetic beads were treated with biotinylated small molecule ligands for 30 minutes at room temperature to generate affinity resins for kinase assays. The liganded beads were blocked with excess biotin and washed with blocking buffer (SeaBlock (Pierce), 1% BSA, 0.05% Tween 20, 1 mM DTT) to remove unbound ligand and to reduce non-specific binding. […] Test compounds were prepared as 111X stocks in 100% DMSO. Kds were determined using an 11-point 3-fold compound dilution series with three DMSO control points. […] The compounds were then diluted directly into the assays such that the final concentration of DMSO was 0.9%. All reactions performed in polypropylene 384-well plate. Each was a final volume of 0.02 ml. […] The kinase concentration in the eluates was measured by qPCR. An 11-point 3-fold serial dilution of each test compound was prepared in 100% DMSO at 100x final test concentration and subsequently diluted to 1x in the assay (final DMSO concentration = 1%). Most Kds were determined using a compound top concentration = 30.000 nM. […] Binding constants (Kds) were calculated with a standard dose-response curve using the Hill equation: Response = Background + Signal – Background 1 + (KdHill Slope / DoseHill Slope). The Hill Slope was set to -1. Curves were fitted using a non-linear least square fit with the Levenberg-Marquardt algorithm.

[2] = biological target: T2, ACVR2B (Homo sapiens, UniProt Q13705); experiment: DiscoverX Kd determination; format: binding
T2 construct: T7 phage fusion (or DNA tag for qPCR if made in HEK-293); purchased DiscoverX; host or cells: E. coli (T7 phage) or HEK-293
T2 sequence (Q13705 19-512): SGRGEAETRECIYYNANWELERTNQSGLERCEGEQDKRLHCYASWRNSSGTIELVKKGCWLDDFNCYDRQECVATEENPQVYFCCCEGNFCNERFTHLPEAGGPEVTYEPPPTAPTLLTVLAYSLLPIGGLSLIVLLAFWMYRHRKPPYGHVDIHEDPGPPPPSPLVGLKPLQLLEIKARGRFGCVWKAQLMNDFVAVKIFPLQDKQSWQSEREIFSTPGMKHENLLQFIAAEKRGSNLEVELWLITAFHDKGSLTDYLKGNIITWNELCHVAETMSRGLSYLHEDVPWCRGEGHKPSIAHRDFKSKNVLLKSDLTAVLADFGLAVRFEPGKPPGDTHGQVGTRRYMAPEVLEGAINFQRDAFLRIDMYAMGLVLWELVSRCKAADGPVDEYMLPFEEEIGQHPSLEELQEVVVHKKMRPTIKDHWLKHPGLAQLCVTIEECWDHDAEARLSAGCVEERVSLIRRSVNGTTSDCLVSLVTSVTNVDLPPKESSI
Procedure: as §1

[3] = Microsomal incubations, hLM; format: in vitro ADME; conditions: human, pooled liver microsomes, pH 7.4; microsomes 0.5 mg/ml, 0.5 μM compound; read-out: Metabolic clearance hLM
Procedure: Pooled human liver microsomes were purchased from Xenotech LLC (Kansas City, KS). Microsomes (0.5 mg/ml) were preincubated with 0.5 μM test compound for 7 min at 37°C in 50 mM phosphate buffer, pH 7.4. The reactions were initiated by adding prewarmed cofactor (0.44 mM NADPH). Aliquots of samples were taken at 0, 5, 10, 20 and 45 min and the reactions terminated by addition of cold acetonitrile containing an internal standard. Samples were centrifuged at 3000g for 10 min at 4°C and then supernatants were analyzed by LC/MS/MS for the amount of parent compound remaining.

[4] = Microsomal incubations, mLM; format: in vitro ADME; conditions: mouse, liver microsomes, pH 7.4; microsomes 0.5 mg/ml, 0.5 μM compound; read-out: Metabolic clearance mLM
[5] = system: p-Smad1/5 in 2H11 ECs; experiment: Western blot of p-Smad1/5 in 2H11 endothelial cells; format: cell-based, mouse; conditions: 2H11 cells, compound 0.5μM; for Inhibition of BMP-6-induced p-Smad1/5: BMP-6 50 ng/mL; for Inhibition of BMP-9-induced p-Smad1/5: BMP-9 1 ng/mL
Procedure: Compounds were added for 16 hours at 0.5μM before luciferase activity was measured.
Cells were seeded into 6-well plates and cultured till they reached confluence. Next, cells were stimulated as indicated and then washed with cold PBS. […] Electrophoresis was performed in 10% SDS/polyacrylamide gels. Separated proteins were transferred to nitrocellulose membranes (0.5 A at 100 V; in ice) for 1 hour. Blots were blocked in Tris-Buffered Saline solution containing 0.1% Tween 20 and 5% non-fat dry milk overnight at 4 °C, and immune-detection of specific proteins was carried out with primary antibodies (see above) followed by horseradish peroxidase-conjugated anti-mouse or anti-rabbit (GE Healthcare, Eindhoven, The Netherlands) secondary antibodies using an ECL system (Fisher Scientific, Landsmeer, The Netherlands).

[6] = system: FOP ECFCs; experiment: Smad1/5 activation and ID-1/ID-3 expression in FOP ECFCs; format: cell-based, human; conditions: compound 0.5μM; for Effect on activin A-induced activation of Smad1/5 and gene targets ID-1 and ID-3: activin A 50 ng/mL; for Effect on BMP-6-induced downstream signaling: BMP-6 50 ng/mL
Procedure: Total RNA extraction was performed using NucleoSpin RNA II (Machery Nagel, Düren, Germany). There were 500 ng of RNA retro‐transcribed using RevertAid First Strand cDNA Synthesis Kits (Fisher Scientific, Landsmeer, The Netherlands), and real‐time reverse transcription‐PCR experiments were performed using SYBR Green (Bio‐Rad, Veenendaal, The Netherlands) and a Bio‐Rad CFX Connect device. A list of the oligonucleotides used can be found as online supplemental data.
Cells were incubated for 21 days in chondrogenic medium containing BMP‐6 or activin A (50 ng/mL) and LDN‐193189, OD36, or OD52 at 0.5μM, prior to Alcian Blue staining. (B) Quantification of Fig. 6 A by absorbance, after solubilization with guanidine hydrochloride. (C) Chondrogenic gene expression analysis of collagen 2 (Col2), Sox9, Matrix metalloproteinase 13 (Mmp13), and collagen X (Col X) in ATDC5 cells corresponding to (A). (D) Western blot of a representative clone of FOP endothelial colony‐forming cells (ECFCs) incubated with LDN‐193189, OD36, or OD52 (0.5μM) prior to stimulation with BMP‐6 (50 ng/mL) or activin A (50 ng/mL). (E) Expression of the BMP target genes ID1 and ID3 by qPCR in FOP ECFCs stimulated with BMP‐6 (50 ng/mL) or activin A (50 ng/mL) in the presence of the indicated compounds at 0.5μM. (F) Alizarin Red solution staining on a representative clone of FOP ECFCs incubated under osteogenic conditions with BMP‐6 (50 ng/mL) or activin A (50 ng/mL) and the indicated compounds. (G) Quantification of Fig. 6 F by absorbance, after solubilization with cetylpyridinium. (H) Osteogenic genes Collagen 1 alpha 1 (Col1a1), Runx2, and osterix (Osx) expression in a representative clone of FOP ECFCs incubated under osteogenic conditions with BMP‐6 (50 ng/mL) or activin A (50 ng/mL) and LDN‐193189, OD36, or OD52 (0.5 μM). *p < 0.05, **p < 0.01, ***p < 0.001.
Cells were seeded into 6-well plates and cultured till they reached confluence. Next, cells were stimulated as indicated and then washed with cold PBS. Lysates were prepared using 2x Sample buffer (10% SDS, 62.5 mM Tris-HCl pH 6.8, 0.002 % Bromophenol Blue, 0.7135 M (5%) β-mercaptoethanol, 10 % glycerol) and boiled for 5 minutes before loading. Electrophoresis was performed in 10% SDS/polyacrylamide gels. Separated proteins were transferred to nitrocellulose membranes (0.5 A at 100 V; in ice) for 1 hour. Blots were blocked in Tris-Buffered Saline solution containing 0.1% Tween 20 and 5% non-fat dry milk overnight at 4 °C, and immune-detection of specific proteins was carried out with primary antibodies (see above) followed by horseradish peroxidase-conjugated anti-mouse or anti-rabbit (GE Healthcare, Eindhoven, The Netherlands) secondary antibodies using an ECL system (Fisher Scientific, Landsmeer, The Netherlands).

T1 sequence (P27037 20-513): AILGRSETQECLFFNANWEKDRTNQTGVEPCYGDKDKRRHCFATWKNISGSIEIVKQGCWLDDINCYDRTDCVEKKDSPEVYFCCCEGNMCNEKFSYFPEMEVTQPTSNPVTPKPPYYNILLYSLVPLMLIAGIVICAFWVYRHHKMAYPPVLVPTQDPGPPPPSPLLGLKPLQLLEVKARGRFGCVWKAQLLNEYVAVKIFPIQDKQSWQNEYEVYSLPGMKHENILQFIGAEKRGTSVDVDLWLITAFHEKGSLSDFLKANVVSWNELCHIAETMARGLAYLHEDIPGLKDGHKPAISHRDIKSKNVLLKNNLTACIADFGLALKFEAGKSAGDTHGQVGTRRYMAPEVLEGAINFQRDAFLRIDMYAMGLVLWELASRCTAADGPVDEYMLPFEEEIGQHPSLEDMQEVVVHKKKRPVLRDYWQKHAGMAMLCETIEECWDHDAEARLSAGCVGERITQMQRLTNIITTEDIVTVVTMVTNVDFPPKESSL

In the case of c1ccc2c(-c3cnn4cc(-c5ccc(N6CCNCC6)cc5)cnc34)ccnc2c1 [LDN-193189, reference compound], the Kd [1] is reported as 12 nM, the Kd [2] is reported as 11 nM and the microsomal CLint at 0.5 μM [3] is reported as 61 µL/min/mg. For the same compound, the microsomal CLint at 0.5 μM [4] was 95 µL/min/mg, the “Inhibition of BMP-6-induced p-Smad1/5” value [5] was “efficiently blocked” and the “Inhibition of BMP-9-induced p-Smad1/5” value [5] was “efficiently blocked”. For the same compound, the “Effect on activin A-induced activation of Smad1/5 and gene targets ID-1 and ID-3” value (from here on “Effect on activin A-induced activation”) [6] was “inhibited”.
Compound Clc1cc2cc(c1)-c1cnn3ccc(nc13)NCCOCCO2 [OD36] has a Kd [1] of 3000 nM, a Kd [2] of 90 nM and a microsomal CLint at 0.5 μM [3] of 59 µL/min/mg. For the same compound, the microsomal CLint at 0.5 μM [4] was 207 µL/min/mg, the “Inhibition of BMP-6-induced p-Smad1/5” value [5] was “only inhibited BMP‐9‐induced p‐Smad1/5” and the “Inhibition of BMP-9-induced p-Smad1/5” value [5] was “only inhibited BMP‐9‐induced p‐Smad1/5”. The “Effect on BMP-6-induced downstream signaling” value [6] was “less effective” and the “Effect on activin A-induced activation” value [6] was “completely prevented”.
In the case of Cc1cc2cc(c1)-c1cnn3ccc(nc13)NCCNC(=O)CCN(C)C2 [OD52], the Kd [1] is reported as 590 nM, the Kd [2] is reported as 220 nM and the microsomal CLint at 0.5 μM [3] is reported as 72 µL/min/mg. For the same compound, the microsomal CLint at 0.5 μM [4] was 84 µL/min/mg, the “Inhibition of BMP-6-induced p-Smad1/5” value [5] was “only inhibited BMP‐9‐induced p‐Smad1/5” and the “Inhibition of BMP-9-induced p-Smad1/5” value [5] was “only inhibited BMP‐9‐induced p‐Smad1/5”. For the same compound, the “Effect on BMP-6-induced downstream signaling” value [6] was “less effective” and the “Effect on activin A-induced activation” value [6] was “completely prevented”.
